Results from US9983196B2, “Compositions and methods for optimizing drug hydrophobicity and drug delivery to cells” (Bioelastics, Inc., priority 2009, dated 2018).

Key:
[1] = controlled release of charged drug from oppositely charged ECMP; assay type: physicochemical; conditions: release of Leu-enkephalin amide (LEA+); for zero order release level per day: after burst release, constant surface area
From the text: For controlled release of pharmaceuticals, positively charged drugs packaged in negatively charged ECMP result in zero-order release. Once the rate of drug release and its ΔGap have been determined for one member of a related family of ECMP, the release rates for another member of the family can be calculated from the acid-base titration data. […] Thus, the thermodynamics of model protein hydration can be determined for a designed ECMP with a known release rate and used to calculate the release rates of a drug from a related ECMP for which only the acid-base titration data has been determined.
FIG. 3 is a plot showing controlled release of positively charged Leu-enkephalin amide (H+-Tyr-Gly-Gly-Phe-Leu-NH2, (SEQ ID NO:6), LEA+) using chemically-synthesized, negatively-charged polymers with designed increases in hydrophobicity giving ΔpKa values of 0.9, 1.3, and 2.2 and ΔGap values of 1.2, 1.8, and 3.0 kcal/mol-E, respectively. After burst release due to 50% excess drug over polymer sites, a constant surface area maintains zero order release levels per day continuing at 4.7 μmole for 25 days, 2.7 μmole for 30 days, and 1.9 μmole for 70 days, respectively. The amino acid sequences from top to bottom are: SEQ ID NO:12, SEQ ID NO:13 and SEQ ID NO:14.
FIG. 5 is a pair of graphs of release profiles showing lower rates of drug release as n of nF increases, that is, as increasing numbers of Val (V) residues are replaced by Phe (F) residues using the series of Lys(K)/Phe(F)-containing model proteins of Table 3 with Φ=K. As the negatively-charged drug is added to the soluble positively-charged model protein phase separation occurs. Drug is added to a 50% excess, which is responsible for the burst release. A. Dexamethasone-phosphate release curves and B. Betamethasone-phosphate release curves.

[2] = acid-base titration of elastic-contractile model proteins (pKa shift, Hill plot); assay type: physicochemical; conditions: for ΔGap / ΔpKa: chemically-synthesized negatively-charged polymers of FIG. 3
[3] = cited from earlier work; for ΔG°HA(GχGVP): reference GGGVP = 0; for ΔG°HA(GχGVP) (from graph): Tt used to obtain value from experimental sigmoid curve of Tt versus ΔG°HA; for ΔG°HA(GχGVP) (data within parentheses): microbial preparations of poly(30 mers), n ≈ 40
[4] = cited from earlier work; for Tt: guest residue χ in poly[fχ(GχGVP),fv(GVGVP)], extrapolated to fχ=1, some cells marked (Tt); for Tt (data within parentheses): microbial preparations of poly(30 mers) (GVGVP GVGVP GχGVP GVGVP GVGVP GVGVP)n, n ≈ 40
[5] = Φ = E (glutamic acid, —COOH), cited from earlier work; for (∂ΔG/∂α) slope: from Hill plot; for ΔGgp (pKa shift): unperturbed pKa taken as 4.0

| Substance | Tt [4] | ΔG°HA(GχGVP) ([3]; DSC) | also measured |
| --- | --- | --- | --- |
| (GFGFPGEGFPGFGFPGFGFPGEGFPGFGFP)n (GFGFPGEGFPGFGFP) [ECMP2E/10F] |  |  | duration of zero order release [1]: 70 days; zero order release level per day [1]: 1.9 µmol; pK of the carboxylate [2]: ~6.2; ΔGap [2]: 3.0 kcal/mol-E; ΔpKa [2]: 2.2 |
| (GVGIP) [pentamer polymer with a single CH2 added to GVGVP] |  |  | ΔGHA due to the addition of a single CH2 ([3]; DSC, difference of ΔHt(GVGVP) and ΔHt(GVGIP)): −1.5 kcal/mol-pentamer |
| Asn [N: Asn] | 50 °C | −0.05 kcal/mol-pentamer |  |
| Asp(COOH) [D°: Asp(COOH)] | 40 °C | −0.40 kcal/mol-pentamer |  |
| Asp(COO−) [D−: Asp(COO−)] | 170 (Tt) ° C. |  | ΔG°HA(GχGVP) (from graph) [3]: ≈+3.4 (from graph) kcal/mol-pentamer |
| Cys [C: Cys] | 30 (Tt) ° C. |  | ΔG°HA(GχGVP) (from graph) [3]: −1.90 (from graph) kcal/mol-pentamer |
| Gln [Q: Gln] | 70 °C | +0.75 kcal/mol-pentamer |  |
| Glu(COOH) [E°: Glu(COOH)] | 20 °C | −1.30 kcal/mol-pentamer | Tt (data within parentheses) [4]: 2 °C; ΔG°HA(GχGVP) (data within parentheses) [3]: −1.50 kcal/mol-pentamer |
| Gly [G: Gly] | 55 °C | 0.00 kcal/mol-pentamer |  |
| His+ [H+: His+] | 30 (Tt) ° C. |  | ΔG°HA(GχGVP) (from graph) [3]: −1.90 (from graph) kcal/mol-pentamer |
| His° [H°: His°] | −10 (Tt) ° C. |  | ΔG°HA(GχGVP) (from graph) [3]: −4.80 (from graph) kcal/mol-pentamer |
| Ile [I: Ile] | 10 °C | −3.65 kcal/mol-pentamer |  |
| Lys(NH2) [K°: Lys(NH2)] | 40 °C | −0.05 kcal/mol-pentamer | Tt (data within parentheses) [4]: 38 °C; ΔG°HA(GχGVP) (data within parentheses) [3]: −0.60 kcal/mol-pentamer |
| Met [M: Met] | 15 °C | −1.50 kcal/mol-pentamer |  |
| N-methyl-6-OH 1,4,5,6-tetrahydronicotinamide [Lys (6-OH tetrahydro NMeN)] |  |  | Tt linearly extrapolated to fX = 1 ([4]; poly[fV(VPGVG),fX(VPGXG)], 5.0 mg/ml polymer, 0.1M potassium bicarbonate pH 9.5, 0.1M KCl): 15 °C; ΔG°HA from FIG. 13 ([3]; gross estimates from Tt and curve, 5.0 mg/ml polymer, 0.1M potassium bicarbonate pH 9.5, 0.1M KCl): -3.5 kcal/mol |
| Phe [F: Phe] | −45 °C | −6.15 kcal/mol-pentamer |  |
| Pro [P: Pro] | 40 °C | −1.10 kcal/mol-pentamer |  |
| SEQ ID NO:12: chemically-synthesized, negatively-charged polymer of FIG. 3, top sequence, least hydrophobic (GVGFPGEGFPGVGVP) |  |  | duration of zero order release [1]: 25 days; zero order release level per day [1]: 4.7 µmol; ΔGap [2]: 1.2 kcal/mol-E; ΔpKa [2]: 0.9 |
| SEQ ID NO:13: chemically-synthesized, negatively-charged polymer of FIG. 3, middle sequence (GEGVPGVGVPGVGFPGFGFPGVGVPGVGVP) |  |  | duration of zero order release [1]: 30 days; zero order release level per day [1]: 2.7 µmol; ΔGap [2]: 1.8 kcal/mol-E; ΔpKa [2]: 1.3 |
| Ser [S: Ser] | 60 °C | +0.55 kcal/mol-pentamer |  |
| Thr [T: Thr] | 60 °C | −0.60 kcal/mol-pentamer |  |
| Trp [W: Trp] | −105 °C | −7.00 kcal/mol-pentamer |  |
| Tyr [Y: Tyr] | −75 °C | −5.85 kcal/mol-pentamer |  |
| Tyr(ϕ-O−) [Y−: Tyr(ϕ-O−)] | 140 °C | +1.95 kcal/mol-pentamer |  |
| Val [V: Val] | 26 °C | −2.50 kcal/mol-pentamer |  |
| [GVGVP GVGFP GΦGFP GVGVP GVGFP GFGFP]n(GVGVP) (GVGVPGVGFPGGFPGVGVPGVGFPGFGFPGVGVP) [E/5F] |  |  | (∂ΔG/∂α) slope [5]: 3.0 kcal/mol; ΔGgp (pKa shift) [5]: 3.1 kcal/mol |
| [GVGVP GVGFP GΦGFP GVGVP GVGFP GVGFP]n(GVGVP) (GVGVPGVGFPGGFPGVGVPGVGFPGVGFPGVGVP) [E/4F] |  |  | (∂ΔG/∂α) slope [5]: 2.2 kcal/mol; ΔGgp (pKa shift) [5]: 2.2 kcal/mol |
| [GVGVP GVGFP GΦGFP GVGVP GVGVP GVGVP]n(GVGVP) (GVGVPGVGFPGGFPGVGVPGVGVPGVGVPGVGVP) [E/2F] |  |  | (∂ΔG/∂α) slope [5]: 1.3 kcal/mol; ΔGgp (pKa shift) [5]: 1.0 kcal/mol |
| [GVGVP GVGVP GΦGVP GVGVP GVGFP GFGFP]n(GVGVP) (GVGVPGVGVPGGVPGVGVPGVGFPGFGFPGVGVP) [E/3F] |  |  | (∂ΔG/∂α) slope [5]: 1.7 kcal/mol; ΔGgp (pKa shift) [5]: 1.6 kcal/mol |
| [GVGVP GVGVP GΦGVP GVGVP GVGVP GVGVP]n(GVGVP) (GVGVPGVGVPGGVPGVGVPGVGVPGVGVPGVGVP) [E/0F] |  |  | (∂ΔG/∂α) slope [5]: 1.1 kcal/mol; ΔGgp (pKa shift) [5]: 0.7 kcal/mol |
